From the supplement of paper PMC10307832

Tests used:
Test in all cases: relative viability (nuclei count vs DMSO), 5 days (fraction); higher = more cells survive
[1] = compound: COc1ncc(-c2ccc3nccc(-c4ccnnc4)c3c2)cc1NS(=O)(=O)c1ccc(F)cc1F [Omipalisib] + CC(C)C[C@H](NC(=O)[C@H](Cc1ccccc1)NC(=O)c1cnccn1)B(O)O [Bortezomib] (partner 0.002 µM)
In short: (§1)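 Each reported value is a median over duplicate plates. It expresses relative viability: treated-well nuclei count divided by vehicle-well nuclei count. Lung cancer cell lines in 1536-well plates were dosed by pin tool a day after seeding, alone with one drug or with a fixed anchor-drug dose plus five library-drug doses (not always all listed) in √10 steps, and nuclei were counted after 5 days.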

[2] = compound: COc1ncc(-c2ccc3nccc(-c4ccnnc4)c3c2)cc1NS(=O)(=O)c1ccc(F)cc1F [Omipalisib] + CC1(C)CCC(c2ccc(Cl)cc2)=C(CN2CCN(c3ccc(C(=O)NS(=O)(=O)c4ccc(N[C@H](CCN5CCOCC5)CSc5ccccc5)c(S(=O)(=O)C(F)(F)F)c4)cc3)CC2)C1 [Navitoclax] (partner 0.5 µM)
In short: as §1

[3] = compound: COc1ncc(-c2ccc3nccc(-c4ccnnc4)c3c2)cc1NS(=O)(=O)c1ccc(F)cc1F [Omipalisib] + NC(=O)Nc1cc(-c2cccc(F)c2)sc1C(=O)N[C@H]1CCCNC1 [AZD7762] (partner 0.2 µM)
In short: as §1

[4] = compound: COc1ncc(-c2ccc3nccc(-c4ccnnc4)c3c2)cc1NS(=O)(=O)c1ccc(F)cc1F [Omipalisib] + Nc1ncn([C@H]2C[C@H](O)[C@@H](CO)O2)c(=O)n1 [Decitabine] (partner 2 µM)
In short: as §1

[5] = compound: COc1ncc(-c2ccc3nccc(-c4ccnnc4)c3c2)cc1NS(=O)(=O)c1ccc(F)cc1F [Omipalisib] + O=C(CCCCCCC(=O)Nc1ccccc1)NO [Vorinostat] (partner 1 µM)
In short: as §1

[6] = compound: COc1ncc(-c2ccc3nccc(-c4ccnnc4)c3c2)cc1NS(=O)(=O)c1ccc(F)cc1F [Omipalisib] + O=C(c1cc(Cc2n[nH]c(=O)c3ccccc23)ccc1F)N1CCN(C(=O)C2CC2)CC1 [Olaparib] (partner 8 µM)
In short: as §1

Cell Line	relative viability ([1]; first compound 0.0003 µM)	relative viability ([1]; first compound 0.003 µM)	relative viability ([1]; first compound 0.03 µM)	relative viability ([2]; first compound 0.0003 µM)	relative viability ([2]; first compound 0.003 µM)	relative viability ([2]; first compound 0.03 µM)	relative viability ([3]; first compound 0.0003 µM)	relative viability ([3]; first compound 0.003 µM)	relative viability ([3]; first compound 0.03 µM)	relative viability ([4]; first compound 0.0003 µM)	relative viability ([4]; first compound 0.003 µM)	relative viability ([4]; first compound 0.03 µM)	relative viability ([5]; first compound 0.0003 µM)	relative viability ([5]; first compound 0.003 µM)	relative viability ([5]; first compound 0.03 µM)	relative viability ([6]; first compound 0.0003 µM)	relative viability ([6]; first compound 0.003 µM)	relative viability ([6]; first compound 0.03 µM)
HCC-78	0.338	0.32	0.252	0.68	0.466	0.193	0.593	0.508	0.281	0.623	0.462	0.344	0.334	0.337	0.246	0.665	0.542	0.298
HCC-366	0.918	0.707	0.168	1.03	0.341	0.12	0.288	0.208	0.184	0.285	0.217	0.105	0.394	0.223	0.113	0.327	0.137	0.0831
HCC-827	1.06	1.17	0.828	0.979	0.97	0.651	0.239	0.213	0.143	0.298	0.244	0.239	0.864	0.682	0.438	0.593	0.6	0.243
HOP-62	0.803	0.617	0.625	1.1	1.19	0.81	0.532	0.55	0.438	0.211	0.264	0.199	0.563	0.511	0.323	0.264	0.548	0.486
LC-2-ad	1.11	0.978	0.888	0.531	0.309	0.105	0.855	0.762	0.464	0.812	0.739	0.63	0.67	0.575	0.303	0.779	0.796	0.639
LCLC-97TM1	0.589	0.477	0.146	0.503	0.149	0.164	0.158	0.36	0.116	0.216	0.168	0.161	0.728	0.378	0.179	0.383	0.291	0.0739
LOU-NH91	0.543	0.517	0.453	0.635	0.585	0.346	0.772	0.566	0.515	0.857	0.747	0.665	1.02	0.679	0.582	0.909	0.852	0.617
LU99A	1.01	0.728	0.495	0.5	0.512	0.293	0.291	0.265	0.165	0.912	0.519	0.311	0.441	0.353	0.228	0.271	0.27	0.214
LXF-289	1.03	0.99	0.808	0.947	1	0.739	1.11	1.26	0.911	0.365	0.371	0.281	0.771	0.905	0.561	0.943	1.05	0.455
NCI-H23	0.877	0.684	0.306	0.748	0.421	0.35	0.278	0.227	0.223	0.308	0.24	0.243	0.541	0.297	0.234	0.384	0.242	0.143
NCI-H322M	1.28	1.01	1.03	1.21	0.823	0.515	0.54	0.455	0.482	0.711	0.643	0.527	0.922	0.765	0.622	0.802	0.815	0.515
NCI-H441	0.418	0.362	0.259	0.547	0.527	0.552	1.02	1.02	0.717	0.24	0.206	0.227	0.783	0.526	0.399	0.55	0.321	0.37
NCI-H460	1.07	0.824	0.109	1.06	0.61	0.143	0.645	0.621	0.277	0.41	0.286	0.247	0.653	0.617	0.0977	0.337	0.373	0.167
NCI-H596	1.04	0.691	0.386	0.849	0.519	0.174	0.966	0.546	0.479	0.846	0.75	0.506	0.581	0.364	0.447	0.639	0.604	0.402
NCI-H647	1.05	0.739	0.462	0.873	0.86	0.542	0.403	0.322	0.215	0.34	0.248	0.378	0.304	0.368	0.295	0.582	0.426	0.233
NCI-H727	0.841	0.591	0.511	0.458	0.229	0.152	0.627	0.486	0.412	0.778	0.712	0.755	1.1	1.02	0.987	0.754	0.612	0.598
NCI-H838	0.743	0.652	0.234	1.1	0.997	0.501	0.895	0.828	0.725	0.471	0.391	0.268	0.678	0.639	0.557	0.745	0.564	0.302

Cell Line	relative viability ([1]; first compound 0.0003 µM)	relative viability ([1]; first compound 0.003 µM)	relative viability ([1]; first compound 0.03 µM)	relative viability ([2]; first compound 0.0003 µM)	relative viability ([2]; first compound 0.003 µM)	relative viability ([2]; first compound 0.03 µM)	relative viability ([3]; first compound 0.0003 µM)	relative viability ([3]; first compound 0.003 µM)	relative viability ([3]; first compound 0.03 µM)	relative viability ([4]; first compound 0.0003 µM)	relative viability ([4]; first compound 0.003 µM)	relative viability ([4]; first compound 0.03 µM)	relative viability ([5]; first compound 0.0003 µM)	relative viability ([5]; first compound 0.003 µM)	relative viability ([5]; first compound 0.03 µM)	relative viability ([6]; first compound 0.0003 µM)	relative viability ([6]; first compound 0.003 µM)	relative viability ([6]; first compound 0.03 µM)
NCI-H1355	1.16	0.925	0.375	0.931	0.538	0.343	0.699	0.571	0.358	0.366	0.326	0.242	0.646	0.396	0.232	0.731	0.52	0.278
NCI-H1437	0.463	0.465	0.227	1.03	0.974	0.517	1.17	1	0.395	0.519	0.564	0.398	0.948	0.75	0.448	0.673	0.603	0.537
NCI-H1651	0.872	0.86	0.747	0.834	0.752	0.484	0.521	0.434	0.359	0.528	0.476	0.446	0.517	0.457	0.437	0.177	0.177	0.172
NCI-H1666	0.749	0.473	0.333	0.808	0.597	0.398	0.852	0.81	0.552	0.843	0.614	0.567	1.02	0.881	0.815	0.687	0.749	0.686
NCI-H1734	0.937	0.544	0.276	0.763	0.444	0.275	0.495	0.321	0.201	0.442	0.331	0.347	0.683	0.466	0.35	0.56	0.364	0.226
NCI-H1755	0.924	0.886	0.708	1.01	0.848	0.368	0.471	0.382	0.328	0.714	0.555	0.485	0.747	0.738	0.517	0.932	0.715	0.362
NCI-H1915	1.02	0.978	0.97	0.813	0.768	0.789	0.777	0.736	0.624	0.248	0.249	0.227	0.528	0.483	0.432	0.288	0.267	0.244
NCI-H1975	0.33	0.27	0.179	1.03	0.635	0.24	0.711	0.446	0.305	0.398	0.296	0.178	0.702	0.458	0.276	0.882	0.521	0.239
NCI-H1993	0.894	0.699	0.542	0.722	0.703	0.618	0.45	0.403	0.382	0.6	0.483	0.447	0.788	0.162	0.378	1.05	0.624	0.398
NCI-H2085	0.953	0.98	0.517	1.12	0.951	0.509	1.06	0.84	0.385	0.524	0.507	0.348	0.815	0.701	0.436	0.829	0.713	0.303
NCI-H2087	0.851	0.867	0.736	0.918	0.749	0.535	1.29	1.55	0.772	0.327	0.192	0.125	0.683	0.549	0.29	0.602	0.344	0.291
NCI-H2126	1.06	0.895	0.734	0.82	0.594	0.375	1.02	0.795	0.657	0.548	0.414	0.304	0.718	0.442	0.348	0.888	0.725	0.412
NCI-H2347	1.02	1.06	0.663	0.764	0.671	0.278	0.843	0.529	0.375	0.538	0.523	0.464	0.638	0.475	0.368	0.527	0.514	0.407
NCI-H2405	0.895	0.909	0.578	0.812	0.618	0.323	0.725	0.484	0.312	0.701	0.482	0.308	1	0.667	0.418	0.854	0.679	0.388
NCI-H3122	1.01	1.04	0.818	1.02	0.991	0.402	1.01	0.613	0.432	0.319	0.258	0.139	0.752	0.713	0.399	0.696	0.585	0.356
PC-3 [JPC-3]	0.788	0.888	0.909	0.781	0.76	0.646	0.73	0.685	0.424	0.776	0.816	0.627	0.889	0.821	0.613	1.05	1.16	0.915
